Laboratory results published in ChEMBL document CHEMBL1150505 (Bioorg Med Chem Lett, 1994).

Legend:
Homo sapiens = organism: Homo sapiens; test: Compound was tested for Leukotriene B4-mediated Up-regulation of human neutrophil CD11b/CD18; assay type: functional
[1] = LTB4 receptor antagonist activity was determined by inhibition of specific binding of [3H]LTB4 in guinea pig lung membranes
[2] = target: Leukotriene B4 receptor 1 (Homo sapiens, UniProt Q15722); test: LTB4 receptor antagonist activity was determined by inhibition of specific binding of [3H]LTB4 in human neutrophil
Leukotriene B4 receptor 1, sequence (Q15722 whole entry): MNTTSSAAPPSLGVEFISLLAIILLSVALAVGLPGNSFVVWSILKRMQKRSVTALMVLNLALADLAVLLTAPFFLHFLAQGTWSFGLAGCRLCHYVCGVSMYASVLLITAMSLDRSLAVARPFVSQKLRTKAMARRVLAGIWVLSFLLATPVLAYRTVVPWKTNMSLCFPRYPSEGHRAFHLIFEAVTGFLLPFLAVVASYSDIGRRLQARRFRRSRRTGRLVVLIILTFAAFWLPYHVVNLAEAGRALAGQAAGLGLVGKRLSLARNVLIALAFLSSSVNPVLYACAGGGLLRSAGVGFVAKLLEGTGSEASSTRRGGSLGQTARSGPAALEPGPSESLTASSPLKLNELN

IC50 (Homo sapiens) [nM] | Ki [1] [nM] | Ki [2] [nM] | SMILES
2.6 |  |  | CCc1cc(-c2ccc(F)cc2)c(O)cc1OCCCOc1cccc(Oc2ccc(C(=O)O)cc2)c1CCC(=O)O
 | 0.04 |  | CCc1cc(-c2ccc(F)cc2)c(O)cc1OCCCOc1ccc2c(=O)c3cc(C(=O)O)ccc3oc2c1CCC(=O)O
1800 |  | 39 | CCc1cc(-c2ccc(F)cc2)c(O)cc1OCCCOc1cc(Oc2ccc(C(=O)O)cc2)ccc1CCC(=O)O
4.7 |  |  | CCc1cc(-c2ccc(F)cc2)c(O)cc1OCCCOc1ccc(C#CCCC(=O)O)cc1CCC(=O)O
